Assay results taken from article PMC9623576, “Semisynthesis and Evaluation of Anti-Inflammatory Activity of the Cassane-Type Diterpenoid Taepeenin F and of Some Synthetic Intermediates” (Journal of Natural Products, 2022).
Values joined by “and” are separate entries in the source; they are usually repeats but may differ in a detail not shown here. Equal entries are not always repeated.

Key:
[1] = system: B16-F10 murine melanoma cells; test: MTT cancer cell proliferation assay, B16-F10; assay type: cell-based; details: Mus musculus, B16-F10, 72 h, MTT; for IC50: read-out: IC50; for IC20: read-out: IC20
Protocol: The five newly synthesized diterpenoids were evaluated for their cytotoxic effects against three selected tumor cell lines, B16-F10 murine melanoma cells, HT29 human colon adenocarcinoma cells, and HepG2 human hepatocarcinoma cells at increasing concentrations (0–100 μg/mL). After 72 h of treatment, cell viability was determined by an MTT assay, where the tetrazolium dye was transformed into formazan in the mitochondria of viable cells, its absorbance measured at 570 nm and expressed as a percentage with respect to untreated control cells (S3 Figure.). The concentrations required for 20, 50, and for 80% growth inhibition (IC20, IC50, and IC80) were also determined for each compound (Table 2).
(§1) A stock solution was frozen and stored at […]. Before the experiments, this solution was diluted in cell-culture medium to the adequate concentrations for each experiment. […] For nitrite assay, subcytotoxic concentrations (3/4IC50, 1/2IC50, and 1/4IC50), were used to ensure that the NO inhibitory potential was not due to a possible cytotoxic effect. The concentrations of 3/4IC50, 1/2IC50, and 1/4IC50 were used for the cell-cycle analysis. All experiments were measured and compared with control (untreated cells after 24, 48, or 72 h of treatment.)
Human colorectal adenocarcinoma cell line HT29 (ECACC no. 9172201; ATCC no. HTB-38), human hepatocarcinome cell line HepG2 (ECACC no. 85011430), mouse melanoma cells B16-F10 (ATCC no. CRL-6475), and murine monocyte/macrophage-like RAW 264.7 cell line (ATCC no, TIB-71) were cultured in DMEM (Dulbecco’s modified Eagle’s medium) supplemented with 2 mM glutamine, 10% heat-inactivated FCS (fetal calf serum), 10 000 units/mL of penicillin and 10 mg/mL of streptomycin, (for all cancer cell lines), 50 μg/mL of gentamicin (only for RAW 264.7 cell line), and incubated at 37 °C, in an atmosphere of 5% CO2 and 95% humidity. The culture media were changed every 48 h, and the confluent cultures were separated with a trypsin solution (0.25% EDTA). In all experiments, monolayer cells were grown to 80–90% confluence, in sterile cell culture flasks. All cell lines used were purchased from the cell bank of the University of Granada, Spain.
The cytotoxicity assay was performed by the MTT (3-(4,5-dimethylthiazol-2-yl)-2,5-diphenyltetrazolium bromide) method.[21] To quantify the cytotoxicity of compounds, the fresh and suspended cells were seeded in 96-well plates to a volume of 100 μL at 6.0 × 10^3 cells/mL for HT29 and RAW 264.7 cell lines, at 5.0 × 10^3 cells/mL for B16-F10 cells and 15.0 × 10^3 for Hep G2. Then, cells were incubated to adhere over 24 h at 37 °C with 5% CO2. All tested compounds were prepared in fresh growth medium. After 24 h, an additional 100 μL of medium with the corresponding concentrations of products (only medium in the control wells) was added to the corresponding wells, at various final concentrations (0–100 μg/mL). Finally, after 72 h of incubation at 37 °C with 5% CO2, the medium with the compounds were removed and 100 μL of MTT solution (0.5 mg/mL) in 50% of PBS 50% of medium was added to each well. After 1.5 h of incubation, formazan was resuspended in 100 μL of DMSO, and each concentration was tested in triplicate. Relative cell viability, with respect to untreated control cells, was measured by absorbance at 570 nm on an ELISA plate reader (Tecan Sunrise MR20-301, TECAN, Austria).
Cytotoxicity experimental data were fitted to a sigmoidal function (y = ymax/(x/a)^−b) by nonlinear regression. […] These analyses were performed using SigmaPlot 12.5 software. Similar analyses were performed to obtain the IC50 of NO production. All data shown here are representative of at least two independent experiments performed in triplicate. All quantitative data were summarized as the mean ± standard deviation (SD).

[2] = system: NO production in LPS-activated RAW 264.7 macrophage murine cells; test: Inhibition of NO (nitrite) release, Griess reaction; assay type: cell-based
Protocol: The concentrations of nitrites were determined by the Griess reaction.
as §1
Nitrites production was analyzed through the Griess reaction. This nitrite concentration was used as an indicator of NO production.[35] Briefly, RAW 264.7 cells were plated at 6 × 10^3 cells/well in 24-well cell culture plates and supplemented with 10 μg/mL of lipopolysaccharide (LPS). […] The supernatants were collected at 48 and 72 h, to determine their nitrite concentrations and/or stored at −80 °C for further use.
The Griess reaction was performed taking 150 μL of supernatant test samples or sodium nitrite standard (0–120 μM) and mixed with 25 μL of Griess reagent A (0.1% N,N-(1-naphthyl) ethylenediaminedihydrochloride) and 25 μL of Griess reagent B (1% sulfanilamide in 5% of phosphoric acid), in a 96-well plate. After 15 min of incubation at room temperature, the absorbance was measured at 540 nm in an ELISA plate reader (Tecan Sunrise MR20–301, TECAN, Austria). The absorbance was referred to a nitrite standard curve to determine the concentration of nitrite in the supernatant of each experimental sample. The percentage of NO production was determined, assigning 100% at the increase between negative control (untreated cells) and positive control (cells only treated with 10 μg/mL of LPS).

B16-F10 cells = test: B16-F10 cell-cycle arrest and distribution, PI flow cytometry; assay type: cell-based, murine; details: B16-F10, 72 h
Protocol: The effects of the compounds 16 and 21 on the B16-F10 cell cycle were investigated using flow cytometry through propidium iodide staining. With this assay, we can determine a possible cytostatic effect related to the cytotoxic response and also measure DNA ploidy as well as alterations of cell-cycle profiles.[32]
The method used to quantify the amount of DNA in the different phases of the cell cycle (G0/G1, S, and G2/M) was performed by flow cytometry after propidium iodide staining (PI).[37] […] After treatment, the cells were washed twice with PBS, trypsinized, and resuspended in 1× TBS (10 mM Tris and 150 mM NaCl). After that, Vindelov buffer (100 mM Tris, 100 mM NaCl, 10 mg/mL Rnase, and 1 mg/mL PI, at pH 8) was added. Cells were stored on ice and, just before measurement, were stained with 20 μL of 1 mg/mL PI solution. Approximately, 10 × 10^3 cells were analyzed in each experiment. The experiments were performed three times with two replicates per assay. Finally, samples were analyzed using a flow cytometer, and the number of cells in each stage of the cell cycle was estimated by fluorescence-associated cell sorting (FACS) at 488 nm in an Epics XL flow cytometer (Coulter Corporation, Hialeah, FL, USA).

| SMILES | IC50 [1] [µM] | IC80 [1] [µM] | IC20 [1] [µM] | inhibition of NO release ([2]; 48 h, 1/2IC50 concentration) [%] | inhibition of NO release ([2]; 48 h, 3/4IC50 concentration) | inhibition of NO release ([2]; 72 h, 3/4IC50 concentration) [%] | cells in the G0/G1 phase (B16-F10 cells; IC80 concentration) [%] | cells in the S phase (B16-F10 cells; IC80 concentration) [%] | decrease of S phase cells compared to untreated control cells (B16-F10 cells; IC80 concentration) [%] | increase of G0/G1 cells over untreated control cells (B16-F10 cells; IC80 concentration) [%] | cells in the G0/G1 phase (B16-F10 cells; IC50 concentration) [%] | cells in the S phase (B16-F10 cells; IC50 concentration) [%] | decrease of S phase cells compared to untreated control cells (B16-F10 cells; IC50 concentration) [%] | increase of G0/G1 cells over untreated control cells (B16-F10 cells; IC50 concentration) [%] |
| --- | --- | --- | --- | --- | --- | --- | --- | --- | --- | --- | --- | --- | --- | --- |
| COC(=O)[C@]1(C)CCC[C@@]2(C)[C@H]1CC=C1C(C)=C(C(C)C)C(=O)C[C@@H]12 [Compound 16, (1R,4aR,10aR)-Methyl 7-isopropyl-1,4a,8-trimethyl-6-oxo-1,2,3,4,4a,4b,5,6,10,10a-decahydrophenanthrene-1-carboxylate] | 22.2 ± 1.16 | 35.8 ± 3.35 | 14.2 ± 0.19 | 59.95 | 85.13% | 80 | 76.36 | 22.42 | 16.79 | 18.24 | – | – | – | – |
| COC(=O)[C@]1(C)CCC[C@]2(C)c3cc(O)c(C=O)c(C)c3CC[C@@H]12 [Compound 21, (1R,4aS,10aR)-Methyl 7-formyl-6-hydroxy-1,4a,8-trimethyl-1,2,3,4,4a,9,10,10a-octahydrophenanthrene-1-carboxylate] | 7.72 ± 3.92 | 20.1 ± 7.72 | 3.18 ± 2.3 | – | 76.49% and 76% | 91 | 70.55 | 29.45 | 9.76 | 12.43 | 71.87 | 27.95 | 11.26 | 13.75 |
